This is an account of results in publication PMC8267677, “Inhibitory Mechanisms of Lusianthridin on Human Platelet Aggregation” (International Journal of Molecular Sciences, 2021).

The target of one assay is T1, cyclooxygenase-2 (COX-2) (Homo sapiens, UniProt P35354).
T1 construct: gene PTGS2
T1 sequence (P35354 18-604): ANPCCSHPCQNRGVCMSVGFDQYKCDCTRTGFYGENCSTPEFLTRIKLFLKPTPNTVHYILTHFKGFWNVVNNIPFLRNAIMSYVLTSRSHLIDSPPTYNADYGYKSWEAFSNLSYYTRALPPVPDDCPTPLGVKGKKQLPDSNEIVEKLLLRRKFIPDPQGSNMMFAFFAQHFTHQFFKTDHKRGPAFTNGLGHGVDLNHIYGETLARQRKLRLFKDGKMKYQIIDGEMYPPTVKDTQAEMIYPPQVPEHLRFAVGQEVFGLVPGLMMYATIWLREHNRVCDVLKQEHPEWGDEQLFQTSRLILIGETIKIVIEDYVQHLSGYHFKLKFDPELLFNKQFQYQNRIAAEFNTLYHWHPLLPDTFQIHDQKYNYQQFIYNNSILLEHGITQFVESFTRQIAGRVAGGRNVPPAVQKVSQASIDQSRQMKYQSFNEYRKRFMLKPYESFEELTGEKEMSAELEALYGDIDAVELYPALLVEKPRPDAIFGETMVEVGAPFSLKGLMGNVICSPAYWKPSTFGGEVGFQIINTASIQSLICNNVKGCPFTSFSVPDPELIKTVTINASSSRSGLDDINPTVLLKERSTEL
Briefly: COX fluorescent inhibitor screening assay kit (Cayman), ADHP/resorufin readout. The format is biochemical.

In the next assay the target is T2, cyclooxygenase-1 (COX-1) (Ovis aries, UniProt P05979).
T2 construct: gene PTGS1
T2 sequence (P05979 25-600): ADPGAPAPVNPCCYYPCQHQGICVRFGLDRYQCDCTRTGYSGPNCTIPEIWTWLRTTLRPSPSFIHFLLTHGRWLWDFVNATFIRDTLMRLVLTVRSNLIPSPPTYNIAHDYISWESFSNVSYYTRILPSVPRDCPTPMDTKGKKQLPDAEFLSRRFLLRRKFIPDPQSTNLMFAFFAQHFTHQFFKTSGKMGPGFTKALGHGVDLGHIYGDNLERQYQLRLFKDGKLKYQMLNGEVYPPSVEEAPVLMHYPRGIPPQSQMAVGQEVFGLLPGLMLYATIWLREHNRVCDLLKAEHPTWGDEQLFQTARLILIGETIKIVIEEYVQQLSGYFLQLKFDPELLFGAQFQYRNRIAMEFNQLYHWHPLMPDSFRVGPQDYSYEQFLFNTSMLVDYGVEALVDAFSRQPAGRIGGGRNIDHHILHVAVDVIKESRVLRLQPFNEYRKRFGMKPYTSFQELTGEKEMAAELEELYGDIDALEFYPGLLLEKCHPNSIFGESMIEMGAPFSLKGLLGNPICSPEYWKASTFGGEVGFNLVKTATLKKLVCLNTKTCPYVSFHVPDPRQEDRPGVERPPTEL
The assay is described as above. It is filed as biochemical.

On to `COc1cc(O)c2c(c1)CCc1cc(O)ccc1-2` [lusianthridin], for which the IC50 against cyclooxygenase-2 (COX-2) was found to be 0.17 µM; against cyclooxygenase-1 (COX-1), 10.8 ± 1.12 µM.
